Source: PubChem BioAssay (NCI)
Values joined by “and” are separate entries in the source; they are usually repeats but may differ in a detail not shown here. Identical values can stand only once.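 Dose response: 5 concentrations. Exposure: 48 h. Format: 96-well plates. Endpoint: linear interpolation; highest concentration if not reached. GI50: concentration for 50% inhibition of growth. The concentration for full growth arrest is given as TGI.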

The compounds below were run on MDA-MB-468 breast (assay: DTP human tumour cell line panel, 48 h).

Question: For COc1cc2c(cc1OCCCCCn1c(-c3ccc(OCc4ccccc4)cc3)nc3cc(N4CCOCC4)ccc31)N=C[C@@H]1CCCN1C2=O, which GI50 is on record?
Answer: Its GI50 is 936 nM.

Question: What about the TGI of the same compound?
Answer: The TGI was 5.1 µM.

Question: Which GI50 does the source give for CCNCc1c(-c2cccc(OC(F)(F)F)c2)[nH]c2ccc(N3CCCC3)cc2c1=O here?
Answer: The GI50 was 2220 nM.

Question: And the TGI?
Answer: Its TGI is 5.74 µM.

Question: How did the GI50 turn out when COC(=O)[C@@H](C)C[C@H](Cc1ccc2ccccc2c1)NC(=O)c1csc([C@@H](C[C@H](C(C)C)N(C)C(=O)[C@@H](NC(=O)[C@H]2CCCCN2C)C(C)C)OC(C)=O)n1 was run?
Answer: The GI50 was 6.83 nM.

Question: And the TGI?
Answer: Its TGI is greater than 25 µM.

Question: How did the GI50 turn out when CCNC(=O)N1CCc2cc(OC)c(OCCc3ccc(OC)c(N)c3)cc2C1c1ccc(C)cc1C (stereo not drawn) was run?
Answer: Its GI50 is 301 nM.

Question: And the TGI?
Answer: Its TGI is 15.8 µM.

Question: COc1cc2ccnc(C=O)c2cc1OC was tested. Which GI50 did it give?
Answer: The GI50 was 31900 nM.

Question: And the TGI?
Answer: Its TGI is greater than 100 µM.

Question: Which results are given for CC(=O)/C=C/c1ccc(OCc2ccc(C(C)(C)C)cc2)cc1?
Answer: GI50: 33900 nM; TGI: > 1000 µM

Question: Which results are given for COc1ccc(/C=C/C(=O)c2cc3c(N)c(C(=O)Nc4cccc(Cl)c4C)sc3nc2C)cc1?
Answer: GI50: 176 nM; TGI: 2.45 µM

Question: For C#C[C@]1(O)CC[C@H]2[C@@H]3CC=C4c5sc(Nc6nc(C)cc(OC)n6)nc5CC[C@]4(C)[C@H]3CC[C@@]21C, which GI50 is on record?
Answer: The GI50 was 4470 nM.

Question: And the TGI?
Answer: Its TGI is greater than 100 µM.

Question: For N#Cc1c(-c2ccccc2)cc(-c2ccccc2)n(CCCC(=O)NO)c1=O, which GI50 is on record?
Answer: The GI50 was 1460 nM.

Question: What about the TGI of the same compound?
Answer: Its TGI is 4.56 µM.

Question: With O=C(c1ccc(Cl)cc1)c1no[n+]([O-])c1C(=O)c1ccc(Cl)cc1 as the compound, how does the GI50 read?
Answer: Its GI50 is 9220 nM.

Question: What about the TGI of the same compound?
Answer: The TGI was 27.7 µM.

Question: Which results are given for CNC(=O)NCC1OC(n2cnc3c(NC(=O)Nc4ccccc4)ncnc32)C(O[Si](C)(C)C(C)(C)C)C1CC(=O)N(C)OC (stereo not drawn)?
Answer: GI50: 1870 nM; TGI: 6.38 µM

Question: For C#CCn1cnc2cnc(Nc3cccc(NC(=O)CCl)c3)nc21, which GI50 is on record?
Answer: The GI50 was 8130 nM.

Question: And the TGI?
Answer: The TGI was 22.8 µM.

Question: Which results are given for Nc1nonc1C(=Nc1ccc(F)c(Cl)c1)NO?
Answer: GI50: 29800 nM; TGI: > 100 µM

Question: Which results are given for CCN(CC)Cc1cc(Nc2c3ccc(Cl)cc3nc3ccc(OC)cc23)ccc1O?
Answer: GI50: 1710 nM; TGI: 3.67 µM

Question: With Nc1nc(N)c(N=Nc2ccccc2)c(-c2ccccc2)n1 as the compound, how does the GI50 read?
Answer: Its GI50 is 1060 nM.

Question: What about the TGI of the same compound?
Answer: The TGI was 11.4 µM.

Question: What does the source list for c1ccc2cc(C[n+]3ccn(CCCCCCCCCCCCn4cc[n+](Cc5ccc6ccccc6c5)c4)c3)ccc2c1?
Answer: GI50: 494 nM; TGI: 1.28 µM

Question: For O=c1c2cc(F)ccc2sc2c(Nc3ccncc3)nc3ccccc3c12, which GI50 is on record?
Answer: The GI50 was 1780 nM.

Question: And the TGI?
Answer: The TGI was 3.5 µM.

Question: COc1ccc(CC(C)=C(c2ccc(OCCN3CCCCCC3)cc2)c2ccc(OCCN3CCCCCC3)cc2)cc1 was tested. Which GI50 did it give?
Answer: Its GI50 is 176 nM.

Question: What about the TGI of the same compound?
Answer: The TGI was 0.667 µM.

Question: How did the GI50 turn out when COc1ccc(-c2cc(-c3ccccc3)nc(SCCCC(=O)NO)n2)cc1OC was run?
Answer: The GI50 was 1440 nM.

Question: And the TGI?
Answer: The TGI was 3.62 µM.

Question: With O=C1[C@@H]2Cc3c([nH]c4ccccc34)[C@H](c3c(Cl)cccc3Cl)N2C(=O)CN1C1CCN(Cc2ccccc2)CC1 as the compound, how does the GI50 read?
Answer: Its GI50 is 2090 nM.

Question: And the TGI?
Answer: Its TGI is 4.27 µM.

Question: With O=C(Nc1nc(-c2ccc(Cl)cc2)cs1)c1cc(-c2ccc(Br)cc2)nc2ccc(Cl)cc12 as the compound, how does the GI50 read?
Answer: The GI50 was 10900 nM.

Question: And the TGI?
Answer: Its TGI is 78.3 µM.

Question: With CCn1c(=O)c(Oc2ccc(F)cc2F)cc2cnc(NC3CCOCC3)nc21 as the compound, how does the GI50 read?
Answer: Its GI50 is greater than 25000 nM.

Question: What about the TGI of the same compound?
Answer: The TGI was greater than 25 µM.

Question: Which GI50 does the source give for CC(C)=CCC/C(C)=C/CC/C(C)=C/CC/C(C)=C/CSC[C@H](NC(=O)CCCCCN1CCN(C)CC1)C(=O)NC1CCCCC1 here?
Answer: The GI50 was 1970 nM.

Question: And the TGI?
Answer: Its TGI is 4.49 µM.

Question: How did the GI50 turn out when Clc1ccc2c(c1)C(Br)c1cc(Cl)cc(Cl)c1-2 (stereo not drawn) was run?
Answer: The GI50 was 35600 nM.

Question: And the TGI?
Answer: Its TGI is greater than 100 µM.

Question: How did the GI50 turn out when C[C@@]1(C(=O)Nc2ccc(F)nc2)CCCN1c1nc(Nc2cc(C3CC3)[nH]n2)c2cccn2n1 was run?
Answer: The GI50 was 250 nM and 526 nM.

Question: What about the TGI of the same compound?
Answer: The TGI was 4.37 µM.

Question: For C[n+]1c(-c2ccccc2)c2cc(N)ccc2c2ccccc21, which GI50 is on record?
Answer: The GI50 was 224 nM.

Question: And the TGI?
Answer: Its TGI is 1.53 µM.

Question: Which GI50 does the source give for Cn1ncc(NC(=O)c2nc(-c3c(F)cccc3F)sc2N)c1N1CC[C@@H](N)[C@H](F)CC1 here?
Answer: The GI50 was 9700 nM.

Question: And the TGI?
Answer: Its TGI is 26.8 µM.

Question: O=C(Nc1ccc(Br)cc1)Nc1nc2ccc([N+](=O)[O-])cc2s1 was tested. Which GI50 did it give?
Answer: Its GI50 is 1670 nM.

Question: What about the TGI of the same compound?
Answer: Its TGI is 3.29 µM.

Question: Which results are given for COc1cc2c(cc1I)-c1c(cc(OC)c(OC)c1OC)CC[C@@H]2NC(C)=O?
Answer: GI50: 244 nM; TGI: 0.738 µM

Question: How did the GI50 turn out when CC1(C)C(N(O)C(=O)Nc2ccc(Cl)cc2)N(c2ccc(Cl)cc2)C(=O)N1CC(=O)N/N=C/C=C/c1ccc([N+](=O)[O-])o1 (stereo not drawn) was run?
Answer: Its GI50 is 1620 nM.

Question: What about the TGI of the same compound?
Answer: Its TGI is 5.35 µM.

Question: What does the source list for CC1(C)CN(c2cc(C(F)(F)F)cc3cncn23)CCC12NC(=O)NC2=O (stereo not drawn)?
Answer: GI50: 22500 nM; TGI: 82.9 µM

Question: For O=C(NNc1nc2cc(F)c(F)cc2n2cccc12)c1ccncn1, which GI50 is on record?
Answer: The GI50 was 241 nM.

Question: And the TGI?
Answer: Its TGI is 1.58 µM.

Question: With CCOC(=O)N1C/C(=C/c2ccc(Cl)cc2)C(=O)/C(=C/c2ccc(Cl)cc2)C1 as the compound, how does the GI50 read?
Answer: The GI50 was 1960 nM.

Question: What about the TGI of the same compound?
Answer: The TGI was 5 µM.

Question: For c1ccc([P+](c2ccccc2)(c2ccccc2)c2ccc3c4ccc([P+](c5ccccc5)(c5ccccc5)c5ccccc5)c5cccc(c6cccc2c63)c54)cc1, which GI50 is on record?
Answer: Its GI50 is 838 nM.

Question: And the TGI?
Answer: Its TGI is 7.46 µM.

Question: Which results are given for COc1cc2c3c(n(CCCNC4CCC4)c(=O)c2cc1OC)-c1cc2c(cc1C3=O)OCO2?
Answer: GI50: 1410 nM; TGI: 3.22 µM

Question: COc1cc(/C=C/c2cc(/C=C/c3ccc(O)c(OC)c3)n(-c3c(Cl)cccc3Cl)c(=O)n2)ccc1O was tested. Which GI50 did it give?
Answer: The GI50 was 2760 nM.

Question: And the TGI?
Answer: Its TGI is 7.18 µM.

Question: C=C1C(=O)O[C@H]2[C@H]1CC/C(COC(=O)/C=C/C(=O)NCc1ccc(Cn3c(=O)sn(-c4ccccc4)c3=O)cc1)=C\CC[C@@]1(C)O[C@@H]21 was tested. Which GI50 did it give?
Answer: Its GI50 is 1350 nM.

Question: And the TGI?
Answer: The TGI was 3.69 µM.

Question: For CCO/C=N/C1=C(C#N)C(c2ccc(OC)cc2)c2sc3c(F)cccc3c2O1 (stereo not drawn), which GI50 is on record?
Answer: Its GI50 is 2410 nM.

Question: And the TGI?
Answer: The TGI was 19.4 µM.

Question: Which results are given for COc1cc(-c2ccc(-c3ccc(C(=N)N)cc3)s2)cc(OC)c1OC?
Answer: GI50: 1640 nM; TGI: 3.15 µM
